In PubChem BioAssay AID624132 (Broad Institute, 2012):
Results filed as inconclusive are left out.

system: Clone20 osteoblast Shn3 3'UTR firefly luciferase, 24 h; test: reduction of Shn3 3'UTR-driven luciferase in osteoblasts – cell-based, Clone20 osteoblasts, firefly luciferase, cherry-picked, dose response (AID 624132)

Row | Structure (SMILES) | AC50 [nM]
1 | CC1=CC2OC3CC4OC(=O)C=CC=CC(C(C)O)OCC(O)C(C)CC(=O)OCC2(CC1O)C4(C)C31CO1 (stereo not drawn) | < 260
2 | CC1=CC2OC3CC4OC(=O)C=CC=CC(C(C)O)OCC(O)C5(C)OC5C(=O)OCC2(CC1O)C4(C)C31CO1 (stereo not drawn) | < 260
3 | CC1=CC2OC3CC4OC(=O)C=CC=CC(=O)OCCC(C)C(O)C(=O)OCC2(CC1O)C4(C)C31CO1 (stereo not drawn) | < 260
4 | CC(=O)OC1C(=O)OCC23CCC4(C)OC4C2OC2CC(OC(=O)C=CC=CC(=O)OCCC1C)C3(C)C21CO1 (stereo not drawn) | < 260
5 | C[C@H]1[C@@H](OS(=O)(=O)O)C[C@@H]2C[C@H]([C@@H](O)c3cc(=O)[nH]c(=O)[nH]3)NC3=NC[C@H]1N32 | 1320
6 | CC(=O)OC1CC2OC3C=C(C)CCC3(C)C1(C)C21CO1 (stereo not drawn) | 829
7 | CC(=O)OCC12CC(OC(=O)CC(C)C)C(C)=CC1OC1C(O)C(OC(C)=O)C2(C)C12CO2 (stereo not drawn) | < 260
8 | CC(=O)OC[C@]12CCC(C)=C[C@H]1O[C@@H]1[C@H](O)[C@@H](OC(C)=O)[C@@]2(C)[C@]12CO2 | < 260
